According to publication PMC5218480 (PLoS ONE, 2017):

Tested on: MV-4-11 cells
Assay: Gene expression microarray analysis (Affymetrix PrimeView) and GSEA
Type: cell-based, human
Design: RFU PODN (11730768_x_at) / Fold change /veh PODN (11730768_x_at) / RFU LINC00158 (11744669_a_at) / Fold change /veh LINC00158 (11744669_a_at) / RFU DUSP10 (11751237_a_at) / Fold change /veh DUSP10 (11751237_a_at) / RFU ID3 (11757404_x_at) / Fold change /veh ID3 (11757404_x_at) / RFU PLEKHG5 (11737974_s_at) / Fold change /veh PLEKHG5 (11737974_s_at) / RFU LRRC4B (11730491_at) / Fold change /veh LRRC4B (11730491_at) / RFU GIMAP4 (11747438_a_at) / Fold change /veh GIMAP4 (11747438_a_at) / RFU KRT8 (11758183_x_at) / Fold change /veh KRT8 (11758183_x_at) / RFU CNN1 (11734310_a_at) / Fold change /veh CNN1 (11734310_a_at) / RFU VPS37D (11726825_at) / Fold change /veh VPS37D (11726825_at) / RFU C10orf10 (11716522_x_at) / Fold change /veh C10orf10 (11716522_x_at) / RFU KIR2DL2 /// KIR2DL4 /// KIR2DL5A /// KIR2DL5B /// KIR2DS1 /// KIR2DS2 /// KIR2DS3 /// KIR2DS4 /// KIR3DL3 /// KIR3DL3 /// KIR3DS1 (11738374_at) / Fold change /veh KIR2DL2 /// KIR2DL4 /// KIR2DL5A /// KIR2DL5B /// KIR2DS1 /// KIR2DS2 /// KIR2DS3 /// KIR2DS4 /// KIR3DL3 /// KIR3DL3 /// KIR3DS1 (11738374_at) / RFU C1QL1 (11718748_at) / Fold change /veh C1QL1 (11718748_at) / RFU TMPRSS4 (11747572_a_at) / Fold change /veh TMPRSS4 (11747572_a_at) / RFU HAMP (11756126_x_at) / Fold change /veh HAMP (11756126_x_at) / RFU RNFT2 (11725882_a_at) / Fold change /veh RNFT2 (11725882_a_at) / RFU NR4A2 (11747474_a_at) / Fold change /veh NR4A2 (11747474_a_at) / RFU ABCC12 (11746883_a_at) / Fold change /veh ABCC12 (11746883_a_at) / RFU TMEM136 (11760407_x_at) / Fold change /veh TMEM136 (11760407_x_at) / RFU CLDN22 /// WWC2 (11732394_at) / Fold change /veh CLDN22 /// WWC2 (11732394_at) / RFU HLA-DPB1 (11760878_x_at) / Fold change /veh HLA-DPB1 (11760878_x_at) / RFU SPINT1 (11716480_a_at) / Fold change /veh SPINT1 (11716480_a_at) / RFU GAP43 (11754022_s_at) / Fold change /veh GAP43 (11754022_s_at) / RFU A4GNT (11735810_at) / Fold change /veh A4GNT (11735810_at) / RFU PRB3 (11715151_x_at) / Fold change /veh PRB3 (11715151_x_at) / RFU TUBB4B (11761932_at) / Fold change /veh TUBB4B (11761932_at) / RFU CAPN14 (11732068_a_at) / Fold change /veh CAPN14 (11732068_a_at) / RFU TMCC2 (11721928_a_at) / Fold change /veh TMCC2 (11721928_a_at) / RFU IRGQ (11745062_a_at) / Fold change /veh IRGQ (11745062_a_at) / RFU FAM174B (11720279_a_at) / Fold change /veh FAM174B (11720279_a_at) / RFU TMPRSS4 (11748680_a_at) / Fold change /veh TMPRSS4 (11748680_a_at) / RFU FAM212B (11763350_a_at) / Fold change /veh FAM212B (11763350_a_at) / RFU PLEKHG5 (11743358_a_at) / Fold change /veh PLEKHG5 (11743358_a_at) / RFU ZSCAN30 (11745921_a_at) / Fold change /veh ZSCAN30 (11745921_a_at) / RFU CMKLR1 (11741424_a_at) / Fold change /veh CMKLR1 (11741424_a_at) / RFU LOC101060620 /// MAPK8IP1 (11723275_at) / Fold change /veh LOC101060620 /// MAPK8IP1 (11723275_at) / RFU SPTSSB (11747773_x_at) / Fold change /veh SPTSSB (11747773_x_at) / RFU PRSS12 (11739890_at) / Fold change /veh PRSS12 (11739890_at) / RFU BIN1 (11741810_x_at) / Fold change /veh BIN1 (11741810_x_at) / RFU WNT11 (11732464_a_at) / Fold change /veh WNT11 (11732464_a_at) / RFU C10orf10 (11716521_a_at) / Fold change /veh C10orf10 (11716521_a_at) / RFU C5orf56 (11738089_at) / Fold change /veh C5orf56 (11738089_at) / RFU CYB561 (11721691_x_at) / Fold change /veh CYB561 (11721691_x_at) / RFU ANKRD19P (11752326_a_at) / Fold change /veh ANKRD19P (11752326_a_at) / RFU OR2T12 /// OR2T33 /// OR2T8 (11738714_s_at) / Fold change /veh OR2T12 /// OR2T33 /// OR2T8 (11738714_s_at) / RFU VCAN (11748164_a_at) / Fold change /veh VCAN (11748164_a_at) / RFU JSRP1 (11732532_at) / Fold change /veh JSRP1 (11732532_at) / RFU KRTAP10-11 (11738290_x_at) / Fold change /veh KRTAP10-11 (11738290_x_at) / RFU MYO3A (11730013_a_at) / Fold change /veh MYO3A (11730013_a_at) / RFU EBF3 (11725865_a_at) / Fold change /veh EBF3 (11725865_a_at) / RFU CAMK2N1 (11719241_x_at) / Fold change /veh CAMK2N1 (11719241_x_at) / RFU C5orf56 (11738088_a_at) / Fold change /veh C5orf56 (11738088_a_at) / RFU OLFML3 (11715873_a_at) / Fold change /veh OLFML3 (11715873_a_at) / RFU LOC100653217 /// NTM (11731650_a_at) / Fold change /veh LOC100653217 /// NTM (11731650_a_at) / RFU MAPK11 (11762145_a_at) / Fold change /veh MAPK11 (11762145_a_at) / RFU FIZ1 (11724087_x_at) / Fold change /veh FIZ1 (11724087_x_at) / RFU OASL (11726364_x_at) / Fold change /veh OASL (11726364_x_at) / RFU SOX15 (11748057_x_at) / Fold change /veh SOX15 (11748057_x_at) / RFU CD79A (11719716_a_at) / Fold change /veh CD79A (11719716_a_at) / RFU HIST1H1D (11736915_at) / Fold change /veh HIST1H1D (11736915_at) / RFU CASKIN2 (11723855_a_at) / Fold change /veh CASKIN2 (11723855_a_at) / RFU LOC730098 (11760151_x_at) / Fold change /veh LOC730098 (11760151_x_at) / RFU OR4N2 (11742367_at) / Fold change /veh OR4N2 (11742367_at) / RFU PRRT2 (11749266_a_at) / Fold change /veh PRRT2 (11749266_a_at) / RFU SNX32 (11753110_a_at) / Fold change /veh SNX32 (11753110_a_at) / RFU CDHR5 (11726645_a_at) / Fold change /veh CDHR5 (11726645_a_at) / RFU RCAN1 (11760418_a_at) / Fold change /veh RCAN1 (11760418_a_at) / RFU FAM167A (11723789_a_at) / Fold change /veh FAM167A (11723789_a_at) / RFU FAM26E (11764081_at) / Fold change /veh FAM26E (11764081_at) / RFU ISYNA1 (11749810_s_at) / Fold change /veh ISYNA1 (11749810_s_at) / RFU ACY1 (11761880_at) / Fold change /veh ACY1 (11761880_at) / RFU 11764098_at / Fold change /veh 11764098_at / RFU SAMD14 (11745864_x_at) / Fold change /veh SAMD14 (11745864_x_at) / RFU NPB (11741838_a_at) / Fold change /veh NPB (11741838_a_at) / RFU TMPRSS6 (11731388_a_at) / Fold change /veh TMPRSS6 (11731388_a_at) / RFU KRTAP10-2 (11738614_at) / Fold change /veh KRTAP10-2 (11738614_at) / RFU ARHGAP8 /// PRR5-ARHGAP8 (11727945_x_at) / Fold change /veh ARHGAP8 /// PRR5-ARHGAP8 (11727945_x_at) / RFU KRTAP5-7 /// NADSYN1 (11734609_at) / Fold change /veh KRTAP5-7 /// NADSYN1 (11734609_at) / RFU RASL12 (11751679_a_at) / Fold change /veh RASL12 (11751679_a_at) / RFU CDKN2B (11736163_a_at) / Fold change /veh CDKN2B (11736163_a_at) / RFU PRF1 (11729649_at) / Fold change /veh PRF1 (11729649_at) / RFU, ZNF638 /// ZNF638-IT1 / Fold change vs veh, ZNF638 /// ZNF638-IT1 / RFU, PANK3 / Fold change vs veh, PANK3 / RFU, SH3YL1 / Fold change vs veh, SH3YL1 / RFU, ZEB2 / Fold change vs veh, ZEB2 / RFU, NRIP1 / Fold change vs veh, NRIP1 / RFU, PTTG1IP / Fold change vs veh, PTTG1IP / RFU, CAPN2 / Fold change vs veh, CAPN2 / RFU, MED14 / Fold change vs veh, MED14 / RFU, SNORA58 / Fold change vs veh, SNORA58 / RFU, C1orf63 / Fold change vs veh, C1orf63 / RFU, LRRFIP1 / Fold change vs veh, LRRFIP1 / RFU, NDUFAF7 / Fold change vs veh, NDUFAF7 / RFU, SLC12A2 / Fold change vs veh, SLC12A2 / RFU, IBTK / Fold change vs veh, IBTK / RFU, ESF1 / Fold change vs veh, ESF1 / Fold change vs veh, TMEM50B / RFU, TAOK1 / Fold change vs veh, TAOK1 / RFU, ACBD3 / Fold change vs veh, ACBD3 / RFU, TMA16 / Fold change vs veh, TMA16 / RFU, RWDD3 / Fold change vs veh, RWDD3 / RFU, BCAT1 / Fold change vs veh, BCAT1 / RFU, EDEM3 / Fold change vs veh, EDEM3 / RFU, TMEM33 / Fold change vs veh, TMEM33 / RFU, WDR75 / Fold change vs veh, WDR75 / RFU, AHCTF1 / Fold change vs veh, AHCTF1 / RFU, TFRC / Fold change vs veh, TFRC / RFU, ZDHHC17 / Fold change vs veh, ZDHHC17 / RFU, NOM1 / Fold change vs veh, NOM1 / RFU, ARL8B / Fold change vs veh, ARL8B / RFU, ZBTB11 / Fold change vs veh, ZBTB11 / RFU, TAMM41 / Fold change vs veh, TAMM41 / RFU, KIAA1704 /// LOC100996395 / Fold change vs veh, KIAA1704 /// LOC100996395 / RFU, ING1 / Fold change vs veh, ING1 / RFU, TRMT61B / Fold change vs veh, TRMT61B / RFU, FUBP3 / Fold change vs veh, FUBP3 / RFU, TP53 / Fold change vs veh, TP53 / RFU, TNKS2 / Fold change vs veh, TNKS2 / RFU, ZFP14 / Fold change vs veh, ZFP14 / RFU, ACTR2 / Fold change vs veh, ACTR2 / RFU, PPP3R1 / Fold change vs veh, PPP3R1 / RFU, PIK3R1 / Fold change vs veh, PIK3R1 / RFU, HNRNPA1 / Fold change vs veh, HNRNPA1 / RFU, RNF170 / Fold change vs veh, RNF170 / RFU, ZNF28 / Fold change vs veh, ZNF28 / RFU, RNGTT / Fold change vs veh, RNGTT / RFU, OGT / Fold change vs veh, OGT / RFU, BRD1 / Fold change vs veh, BRD1 / RFU, MARS / Fold change vs veh, MARS / RFU, ZNF655 / Fold change vs veh, ZNF655 / RFU, FAHD1 / Fold change vs veh, FAHD1 / RFU, BDP1 / Fold change vs veh, BDP1 / RFU, LRRCC1 / Fold change vs veh, LRRCC1 / RFU, ARID1A / Fold change vs veh, ARID1A / RFU, ZNF146 / Fold change vs veh, ZNF146 / RFU, ZNF330 / Fold change vs veh, ZNF330 / RFU, GPN3 / Fold change vs veh, GPN3 / RFU, C9orf123 / Fold change vs veh, C9orf123 / RFU, N4BP2L2 / Fold change vs veh, N4BP2L2 / RFU, ARFIP1 / Fold change vs veh, ARFIP1 / RFU, FAM179B / Fold change vs veh, FAM179B / RFU, BCL10 / Fold change vs veh, BCL10 / RFU, UHRF1BP1L / Fold change vs veh, UHRF1BP1L / RFU, BET1 / Fold change vs veh, BET1 / RFU, CNOT2 / Fold change vs veh, CNOT2 / RFU, ZNF268 / Fold change vs veh, ZNF268 / Fold change vs veh, ZNF507 / RFU, DGCR2 / Fold change vs veh, DGCR2 / RFU, WDSUB1 / Fold change vs veh, WDSUB1 / Fold change vs veh, HSP90B1 /// MIR3652 / RFU, ADSS / Fold change vs veh, ADSS / RFU, GK / Fold change vs veh, GK / RFU, ZNF148 / Fold change vs veh, ZNF148 / RFU, TAF9 / Fold change vs veh, TAF9 / RFU, SLC1A5 / Fold change vs veh, SLC1A5 / RFU, SLMO2 / Fold change vs veh, SLMO2 / RFU, ABCC4 / Fold change vs veh, ABCC4 / RFU, LOC101060439 /// RAP1B / Fold change vs veh, LOC101060439 /// RAP1B / RFU, RFX7 / Fold change vs veh, RFX7 / RFU, GTPBP10 / Fold change vs veh, GTPBP10 / RFU, CNEP1R1 / Fold change vs veh, CNEP1R1 / RFU, BIVM-ERCC5 /// ERCC5 / Fold change vs veh, BIVM-ERCC5 /// ERCC5 / RFU, ILF3 / Fold change vs veh, ILF3 / RFU 11762660_at / Fold change /veh 11762660_at / RFU VCAN (11757783_s_at) / Fold change /veh VCAN (11757783_s_at) / RFU DDX43 (11728927_at) / Fold change /veh DDX43 (11728927_at) / RFU KRT8 (11758188_x_at) / Fold change /veh KRT8 (11758188_x_at) / RFU NKD1 (11759106_at) / Fold change /veh NKD1 (11759106_at) / RFU SRD5A1 (11742802_a_at) / Fold change /veh SRD5A1 (11742802_a_at) / RFU TPSAB1 /// TPSB2 (11721975_s_at) / Fold change /veh TPSAB1 /// TPSB2 (11721975_s_at) / RFU GSTM3 (11746129_a_at) / Fold change /veh GSTM3 (11746129_a_at) / RFU IL23R (11737362_x_at) / Fold change /veh IL23R (11737362_x_at) / RFU TMEM51 (11727254_a_at) / Fold change /veh TMEM51 (11727254_a_at) / RFU PIWIL2 (11732686_x_at) / Fold change /veh PIWIL2 (11732686_x_at) / RFU ORM1 (11744905_x_at) / Fold change /veh ORM1 (11744905_x_at) / RFU CCDC152 (11743942_at) / Fold change /veh CCDC152 (11743942_at) / RFU ECM1 (11717891_a_at) / Fold change /veh ECM1 (11717891_a_at) / RFU IL23R (11748794_a_at) / Fold change /veh IL23R (11748794_a_at) / RFU TNFAIP8L3 (11732012_x_at) / Fold change /veh TNFAIP8L3 (11732012_x_at) / RFU MBOAT4 (11741988_at) / Fold change /veh MBOAT4 (11741988_at) / RFU 11764193_at / Fold change /veh 11764193_at / RFU TMEM53 (11763286_at) / Fold change /veh TMEM53 (11763286_at) / RFU MAGEB2 (11727129_at) / Fold change /veh MAGEB2 (11727129_at) / RFU TMEM200A (11744735_a_at) / Fold change /veh TMEM200A (11744735_a_at) / RFU CCDC152 (11751479_a_at) / Fold change /veh CCDC152 (11751479_a_at) / RFU FAM211A (11726209_a_at) / Fold change /veh FAM211A (11726209_a_at) / RFU RGS16 (11746705_a_at) / Fold change /veh RGS16 (11746705_a_at) / RFU VCAN (11755009_s_at) / Fold change /veh VCAN (11755009_s_at) / RFU RHOB (11743442_s_at) / Fold change /veh RHOB (11743442_s_at) / RFU RGS16 (11720943_a_at) / Fold change /veh RGS16 (11720943_a_at) / RFU RGS16 (11720944_at) / Fold change /veh RGS16 (11720944_at) / RFU, VPS4B / Fold change vs veh, VPS4B / RFU, CREB1 / Fold change vs veh, CREB1 / RFU, DNAJC13 / Fold change vs veh, DNAJC13 / RFU, GNAQ / Fold change vs veh, GNAQ / RFU, CDK5R1 / Fold change vs veh, CDK5R1 / RFU, ZRANB3 / Fold change vs veh, ZRANB3 / RFU, CUL4A / Fold change vs veh, CUL4A / RFU, CCNY / Fold change vs veh, CCNY / RFU, UFL1 / Fold change vs veh, UFL1 / RFU, COG3 / Fold change vs veh, COG3 / RFU, DIAPH2 / Fold change vs veh, DIAPH2 / RFU, SKA2 / Fold change vs veh, SKA2 / RFU, AFF3 / Fold change vs veh, AFF3 / RFU, LMF1 / Fold change vs veh, LMF1 / RFU, IPO11 / Fold change vs veh, IPO11 / RFU, DFFB / Fold change vs veh, DFFB / RFU, FOXP1 / Fold change vs veh, FOXP1 / RFU, CARD8 / Fold change vs veh, CARD8 / RFU, STRN3 / Fold change vs veh, STRN3 / RFU, ADK / Fold change vs veh, ADK / RFU, RASSF2 / Fold change vs veh, RASSF2 / RFU, WIPF1 / Fold change vs veh, WIPF1 / RFU, LARP1B / Fold change vs veh, LARP1B / RFU, RASA1 / Fold change vs veh, RASA1 / RFU, RB1 / Fold change vs veh, RB1 / RFU, PPFIA1 / Fold change vs veh, PPFIA1 / RFU, MAT2A / Fold change vs veh, MAT2A / RFU, CCT5 / Fold change vs veh, CCT5 / RFU, WDR92 / Fold change vs veh, WDR92 / RFU, CUX1 / Fold change vs veh, CUX1 / RFU, TTC7A / Fold change vs veh, TTC7A / RFU, TMEM135 / Fold change vs veh, TMEM135 / RFU, DEPTOR / Fold change vs veh, DEPTOR / RFU, CPM / Fold change vs veh, CPM / RFU, DNAJB6 / Fold change vs veh, DNAJB6 / RFU, CACNA2D3 / Fold change vs veh, CACNA2D3 / RFU, DTX4 / Fold change vs veh, DTX4 / RFU, TFCP2 / Fold change vs veh, TFCP2 / RFU, GMCL1 /// GMCL1P1 / Fold change vs veh, GMCL1 /// GMCL1P1 / RFU, AEBP2 / Fold change vs veh, AEBP2 / RFU, SNHG1 /// SNORD22 /// SNORD25 /// SNORD26 /// SNORD27 /// SNORD28 /// SNORD29 /// SNORD31 / Fold change vs veh, SNHG1 /// SNORD22 /// SNORD25 /// SNORD26 /// SNORD27 /// SNORD28 /// SNORD29 /// SNORD31 / Fold change (Aza/veh), C12orf56 (ProbeSet 11735607_a_at) / Fold change (ACY-1035/veh), C12orf56 (ProbeSet 11735607_a_at) / Fold change (Aza/veh), FGFR1OP (ProbeSet 11751329_s_at) / Fold change (ACY-1035/veh), FGFR1OP (ProbeSet 11751329_s_at) / Fold change (Aza/veh), VPS36 (ProbeSet 11739960_a_at) / Fold change (ACY-1035/veh), VPS36 (ProbeSet 11739960_a_at) / RFU SYPL1 (11715823_x_at) / Fold change /veh SYPL1 (11715823_x_at) / RFU IGFBP7 (11715501_s_at) / Fold change /veh IGFBP7 (11715501_s_at) / RFU REEP3 (11722064_at) / Fold change /veh REEP3 (11722064_at) / RFU IGLL1 (11728026_x_at) / Fold change /veh IGLL1 (11728026_x_at): dose or concentration left out as unconfirmed
Details: ProbeSet 11740781_a_at; LIST B

Question: `Nc1ccc(-c2cccs2)cc1NC(=O)c1ccc2c(c1)cc(C1CC1)n2CCN1CCOCC1` [ACY-1035] was tested. Which “RFU, ILF3” value did it give?
Answer: 238.85 RFU
